Laboratory results published in patent publication US20120264735A1 (priority 2009, published 2012).

biological target: T1, c-Met kinase (recombinant c-Met) (Homo sapiens, UniProt P08581); test: In vitro kinase assay I (homogeneous time-resolved fluorescence tyrosine kinase assay); assay type: biochemical
T1 construct: 0.27 nM recombinant c-Met
Outline: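 Biotinylated peptide (0.5 μM) phosphorylated by 0.2 nM recombinant c-Met with 50 μM MgATP, 60 min at room temperature, pH 7.4, 5% DMSO. EDTA stop; HTRF read with Eu-anti-phosphotyrosine antibody and streptavidin-APC. IC50 from 4-parameter logistic fit.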

T1 sequence (P08581 25-1390): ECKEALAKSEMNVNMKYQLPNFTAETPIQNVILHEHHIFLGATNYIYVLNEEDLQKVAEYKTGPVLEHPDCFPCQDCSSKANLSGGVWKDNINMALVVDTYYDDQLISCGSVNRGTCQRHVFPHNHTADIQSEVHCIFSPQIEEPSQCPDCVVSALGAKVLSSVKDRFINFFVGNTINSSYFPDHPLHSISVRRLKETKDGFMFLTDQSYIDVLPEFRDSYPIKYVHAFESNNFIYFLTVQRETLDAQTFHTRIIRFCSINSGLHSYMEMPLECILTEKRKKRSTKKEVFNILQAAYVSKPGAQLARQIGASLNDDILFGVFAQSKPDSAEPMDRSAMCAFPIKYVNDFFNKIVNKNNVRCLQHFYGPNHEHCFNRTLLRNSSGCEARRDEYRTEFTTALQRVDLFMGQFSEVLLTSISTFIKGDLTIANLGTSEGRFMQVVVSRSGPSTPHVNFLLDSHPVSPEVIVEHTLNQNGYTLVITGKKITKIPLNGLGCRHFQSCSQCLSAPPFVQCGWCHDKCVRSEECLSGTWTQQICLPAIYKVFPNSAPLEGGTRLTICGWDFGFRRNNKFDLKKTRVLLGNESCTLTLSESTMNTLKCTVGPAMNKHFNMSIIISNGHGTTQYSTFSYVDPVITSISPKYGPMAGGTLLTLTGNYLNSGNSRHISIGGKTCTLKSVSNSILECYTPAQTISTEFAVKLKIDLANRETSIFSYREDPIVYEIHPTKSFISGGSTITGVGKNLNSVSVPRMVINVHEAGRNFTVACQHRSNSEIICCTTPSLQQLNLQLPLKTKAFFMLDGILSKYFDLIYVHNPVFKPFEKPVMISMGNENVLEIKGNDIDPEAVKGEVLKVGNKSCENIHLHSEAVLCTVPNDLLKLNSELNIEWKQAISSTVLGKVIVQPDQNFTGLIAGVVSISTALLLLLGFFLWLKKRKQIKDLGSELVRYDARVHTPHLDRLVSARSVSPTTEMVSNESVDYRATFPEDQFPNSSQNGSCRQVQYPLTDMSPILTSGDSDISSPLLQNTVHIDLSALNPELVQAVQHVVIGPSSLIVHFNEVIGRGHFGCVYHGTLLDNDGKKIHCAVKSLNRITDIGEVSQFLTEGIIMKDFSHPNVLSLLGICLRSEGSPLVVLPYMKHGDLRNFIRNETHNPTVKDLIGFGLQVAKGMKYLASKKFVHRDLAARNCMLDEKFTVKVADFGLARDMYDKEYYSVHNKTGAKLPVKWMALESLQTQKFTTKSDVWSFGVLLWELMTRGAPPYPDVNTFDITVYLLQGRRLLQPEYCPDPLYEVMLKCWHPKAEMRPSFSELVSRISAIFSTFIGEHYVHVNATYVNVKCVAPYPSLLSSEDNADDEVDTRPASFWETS

Structure (SMILES)	IC50 [nM]
CCn1cc(-n2ccc(=O)c(Cc3cccc(-c4ncc(OC5CNC5)cn4)c3)n2)cn1 [Example 337, 3-{3-[5-(azetidin-3-yloxy)pyrimidin-2-yl]benzyl}-1-(1-ethyl-1H-pyrazol-4-yl)pyridazin-4(1H)-one]	< 100
CCn1cc(-n2ccc(=O)c(C(C)c3cccc(-c4ncc(OCC5(C)COC5)cn4)c3)n2)cn1 (single isomer, unassigned) [Example 304, 1-(1-ethyl-1H-pyrazol-4-yl)-3-[(1R or S)-1-(3-{5-[(3-methyloxetan-3-yl)methoxy]pyrimidin-2-yl}phenyl)ethyl]pyridazin-4(1H)-one]	< 100
CN(C)C(=O)COc1cnc(-c2cccc(Cc3nn(-c4cnn(C)c4)ccc3=O)c2)nc1 [Example 279, N,N-dimethyl-2-{[2-(3-{[1-(1-methyl-1H-pyrazol-4-yl)-4-oxo-1,4-dihydropyridazin-3-yl]methyl}phenyl)pyrimidin-5-yl]oxy}acetamide]	< 100
Cn1cc(-n2ccc(=O)c(Cc3cccc(NC(=O)OCCC(C)(C)O)c3)n2)cn1 [Example 526, 3-hydroxy-3-methylbutyl (3-{[1-(1-methyl-1H-pyrazol-4-yl)-4-oxo-1,4-dihydropyridazin-3-yl]methyl}phenyl)carbamate]	< 100
Cn1cc(-n2ccc(=O)c(Cc3cccc(N4CCOC4=O)c3)n2)cn1 [Example 637, 1-(1-Methyl-1H-pyrazol-4-yl)-3-[3-(2-oxo-1,3-oxazolidin-3-yl)benzyl]pyridazin-4(1H)-one]	1000 to 3000
CCn1cc(-n2ccc(=O)c(C(C)c3cccc(-c4ncc(COC)cn4)c3)n2)cn1 (single isomer, unassigned) [Example 218, 1-(1-ethyl-1H-pyrazol-4-yl)-3-((1R or S)-1-{3-[5-(methoxymethyl)pyrimidin-2-yl]phenyl}ethyl)pyridazin-4(1H)-one]	< 100
CCOc1cnc(-c2cccc(C(C)c3nn(-c4cccc(C(N)=O)c4)ccc3=O)c2)nc1 (racemic) [Example 738, rac-3-[3-{1-[3-(5-ethoxypyrimidin-2-yl)phenyl]ethyl}-4-oxopyridazin-1(4H)-yl]lbenzamide]	< 100
COc1cnc(-c2cccc(C(CO)c3nn(-c4cnn(C)c4)ccc3=O)c2)nc1 (racemic) [Example 254, rac-3-{2-Hydroxy-1-[3-(5-methoxypyrimidin-2-yl)phenyl]ethyl}-1-(1-methyl-1H-pyrazol-4-yl)pyridazin-4(1H)-one]	1000 to 3000
O=C(Nc1cccc(Cc2nn(-c3ccc(F)c(F)c3)ccc2=O)c1)OCCN1CCS(=O)(=O)CC1 [Example 528, 2-(1,1-dioxidothio-morpholin-4-yl)ethyl-(3-{[1-(3,4-difluorophenyl)-4-oxo-1,4-dihydropyridazin-3-yl]methyl}phenyl)carbamate]	< 100
Cc1nnc(-c2cccc(Cc3nn(-c4cnn(C)c4)ccc3=O)c2)s1 [Example 75, 1-(1-methyl-1H-pyrazol-4-yl)-3-[3-(5-methyl-1,3,4-thiadiazol-2-yl)benzyl]pyridazin-4(1H)-one]	1000 to 3000
CCOc1cnc(-c2cccc(C(C)c3nn(-c4cnn(CCO)c4)ccc3=O)c2)nc1 (single isomer, unassigned) [Example 256, 3-{(1R or S)-1-[3-(5-ethoxypyrimidin-2-yl)phenyl]ethyl}-1-[1-(2-hydroxyethyl)-1H-pyrazol-4-yl]pyridazin-4(1H)-one]	< 100
COCCN1CCC(COC(=O)Nc2cccc(Cc3nn(-c4cccc(C#N)c4)ccc3=O)c2)C1 (racemic) [Example 585, rac-[1-(2-methoxyethyl)pyrrolidin-3-yl]methyl (3-{[1-(3-cyanophenyl)-4-oxo-1,4-dihydropyridazin-3-yl]methyl}phenyl)carbamate]	< 100
CCOc1cnc(-c2cccc(Cc3nn(-c4cccc(F)c4)ccc3=O)c2)nc1 [Example 725, 3-(3-(5-Ethoxypyrimidin-2-yl)benzyl)-1-(3-fluorophenyl)pyridazin-4(1H)-one]	< 100
CCC(c1cccc(-c2ncc(OC)cn2)c1)c1nn(-c2cnn(C)c2)ccc1=O (racemic) [Example 225, rac-3-{1-[3-(5-methoxypyrimidin-2-yl)phenyl]propyl}-1-(1-methyl-1H-pyrazol-4-yl)pyridazin-4(1H)-one]	< 100

Results, then the compound that gave them:

IC50 [nM]	Structure (SMILES)
< 100	CCCOC(=O)Nc1cccc(Cc2nn(-c3cncc(F)c3)ccc2=O)c1 [Example 35, propyl (3-{[1-(5-fluoropyridin-3-yl)-4-oxo-1,4-dihydropyridazin-3-yl]methyl}phenyl)carbamate]
1000 to 3000	Cn1cc(-n2ccc(=O)c(C(F)c3ccc4ncccc4c3)n2)cn1 (racemic) [Example 753, rac-3-[Fluoro(quinolin-6-yl)methyl]-1-(1-methyl-1H-pyrazol-4-yl)pyridazin-4(1H)-one]
< 100	CCCn1cc(-n2ccc(=O)c(Cc3cccc(NC(=O)OCC)c3)n2)cn1 [Example 112, ethyl (3-{[4-oxo-1-(1-propyl-1H-pyrazol-4-yl)-1,4-dihydropyridazin-3-yl]methyl}phenyl)carbamate]
1000 to 3000	Cn1cc(-n2ccc(=O)c(Cc3cccc4c3CNC4=O)n2)cn1 [Example 45, 4-{[1-(1-methyl-1H-pyrazol-4-yl)-4-oxo-1,4-dihydropyridazin-3-yl]methyl}-2,3-dihydro-1H-isoindol-1-one]
< 100	COCCOCCOC(=O)Nc1cccc(Cc2nn(-c3cc(F)c(F)c(F)c3)ccc2=O)c1 [Example 599, 2-(2-methoxyethoxy)ethyl (3-{[4-oxo-1-(3,4,5-trifluorophenyl)-1,4-dihydropyridazin-3-yl]methyl}phenyl)carbamate]
< 100	CN1CCC(COc2cnc(-c3cccc(Cc4nn(-c5cc(F)cc(C#N)c5)ccc4=O)c3)nc2)CC1 [Example 170, 3-fluoro-5-[3-(3-{5-[(1-methylpiperidin-4-yl)methoxy]pyrimidin-2-yl}benzyl)-4-oxopyridazin-1(4H)-yl]benzonitrile]
< 100	Cn1cc(-n2ccc(=O)c(Cc3cccc(-c4ncn(CCCC5CCCO5)n4)c3)n2)cn1 (racemic) [Example 721, rac-1-(1-methyl-1H-pyrazol-4-yl)-3-(3-{1-[3-(tetrahydrofuran-2-yl)propyl]-1H-1,2,4-triazol-3-yl}benzyl)pyridazin-4(1H)-one]
< 100	CC(c1cccc(-c2ncc(OC(C)C(C)(C)O)cn2)c1)c1nn(-c2cnn(C)c2)ccc1=O (single isomer, unassigned) [Example 382, 3-{(1R or S)-1-[3-(5-{[(1R or S)-2-hydroxy-1,2-dimethylpropyl]oxy}pyrimidin-2-yl)phenyl]ethyl}-1-(1-methyl-1H-pyrazol-4-yl)pyridazin-4(1H)-one]
< 100	Cn1cc(-n2ccc(=O)c(Cc3cccc(NC(=O)OCCN4CCCC4=O)c3)n2)cn1 [Example 533, 2-(2-oxopyrrolidin-1-yl)ethyl (3-{[1-(1-methyl-1H-pyrazol-4-yl)-4-oxo-1,4-dihydropyridazin-3-yl]methyl}phenyl)carbamate]
< 100	CN1CCN(CCCOC(=O)Nc2cccc(Cc3nn(-c4cnn(C)c4)ccc3=O)c2)CC1 [Example 536, 3-(4-methylpiperazin-1-yl)propyl-(3-{[1-(1-methyl-1H-pyrazol-4-yl)-4-oxo-1,4-dihydropyridazin-3-yl]methyl}phenyl)carbamate]
100 to 1000	CC(c1cccc(-c2ncc(OCC(C)(C)O)cn2)c1)c1nn(-c2ccc(F)c(F)c2)ccc1=O (single isomer, unassigned) [Example 249, 1-(3,4-difluorophenyl)-3-[(1S or R)-1-{3-[5-(2-hydroxy-2-methylpropoxy)pyrimidin-2-yl]phenyl}ethyl]pyridazin-4(1H)-one]
< 100	Cn1cc(-n2ccc(=O)c(Cc3cccc(-c4ncc(C5CCCO5)cn4)c3)n2)cn1 (racemic) [Example 198, rac-1-(1-Methyl-1H-pyrazol-4-yl)-3-{3-[5-(tetrahydrofuran-2-yl)pyrimidin-2-yl]benzyl}pyridazin-4(1H)-one]
< 100	Cn1cc(-n2ccc(=O)c(Cc3cccc(-c4ncc(CN5CCNCC5)cn4)c3)n2)cn1 [Example 433]
< 100	Cn1cc(-c2cnc(-c3cccc(Cc4nn(-c5cc(F)cc(C#N)c5)ccc4=O)c3)nc2)cn1 [Example 155, 3-fluoro-5-[3-{3-[5-(1-methyl-1H-pyrazol-4-yl)pyrimidin-2-yl]benzyl}-4-oxopyridazin-1(4H)-yl]benzonitrile]
< 100	Cn1cc(-n2ccc(=O)c(Cc3ccc4ncc(OCC5(C)COC5)cc4c3)n2)cn1 [Example 62, 3-({3-[(3-methyloxetan-3-yl)methoxy]quinolin-6-yl}methyl)-1-(1-methyl-1H-pyrazol-4-yl)pyridazin-4(1H)-one]
< 100	COCc1cnc(-c2cccc(Cc3nn(-c4cnn(C)c4)ccc3=O)c2)nc1 [Example 161, 3-{3-[5-(methoxymethyl)pyrimidin-2-yl]benzyl}-1-(1-methyl-1H-pyrazol-4-yl)pyridazin-4(1H)-one]
< 100	Cn1cc(-n2ccc(=O)c(Cc3cccc(-c4ncc(CCc5ccccn5)cn4)c3)n2)cn1 [Example 398, 1-(1-methyl-1H-pyrazol-4-yl)-3-(3-{5-[2-(pyridin-2-yl)ethyl]pyrimidin-2-yl}benzyl)pyridazin-4(1H)-one]
< 100	CCn1cnc(-c2cccc(Cc3nn(-c4cc(F)cc(C#N)c4)ccc3=O)c2)n1 [Example 83, 3-{3-[3-(1-ethyl-1H-1,2,4-triazol-3-yl)benzyl]-4-oxopyridazin-1(4H)-yl}-5-fluorobenzonitrile]
< 100	[2H]C([2H])([2H])n1cc(-n2ccc(=O)c(C(F)c3cccc(-c4ncc(OCC)cn4)c3)n2)cn1 (racemic) [Example 657, rac-3-[[3-(5-Ethoxypyrimidin-2-yl)phenyl](fluoro)methyl]-1-(1-methyl-1H-pyrazol-4-yl)pyridazin-4(1H)-one-d3]
< 100	O=C(Nc1cccc(Cc2nn(-c3ccc(F)c(F)c3)ccc2=O)c1)OCC1COCCO1 (racemic) [Example 603, rac-1,4-dioxan-2-ylmethyl (3-{[1-(3,4-difluorophenyl)-4-oxo-1,4-dihydropyridazin-3-yl]methyl}phenyl)carbamate]
